Earlier results as cited in patent publication US7368458B2, “Bicyclic heterocycles as cannabinoid receptor modulators” (Bristol-Myers Squibb Company, priority 2005, dated 2008).
Read-outs that look alike come from different tables or passages of the source.

Columns and labels:
[1] = chronic administration for two weeks
[2] = human subjects, 16 week trial period

Compound: Cc1c(C(=O)NN2CCCCC2)nn(-c2ccc(Cl)cc2Cl)c1-c1ccc(I)cc1 [AM-251]
- body weight [1]: substantial body weight reduction

Compound: Cc1c(C(=O)NN2CCCCC2)nn(-c2ccc(Cl)cc2Cl)c1-c1ccc(Cl)cc1 [SR-141716]
- body weight [2]: dose-dependently reduced body weight
